From paper PMC9858213, “What Is Authentic Maple Water? A Twelve-Month Shelf-Life Study of the Chemical Composition of Maple Water and Its Biological Activities” (Foods, 2023)

Biological target: T1, tyrosinase
T1 construct: gene PPO1
Experiment: absorbance at […] nm, tyrosinase inhibition in 96-well plate
Assay type: biochemical
Conditions: L-tyrosine substrate ([…] µL of […] in […] µL), phosphate buffer pH […], room temperature, […] min

`COc1cc(C(CO)C(c2ccc(O)c(OC)c2)c2ccc(O)c(OC)c2)ccc1O` (stereo not shown) [quebecol] showed an IC50 of 1030 nM.
